Experimental findings from article PMC11484942, “Rumicidins are a family of mammalian host-defense peptides plugging the 70S ribosome exit tunnel” (Nature Communications, 2024) are described below.

Usually MIC stands for the lowest concentration that inhibits growth of the organism.

Ends that are not written are not given here.

Data set [1] concerns E. coli ATCC 25922. The data set is described as follows: Systemic septicemia infection mouse model. It counts as in vivo, BALB/c mice. As to conditions: 10 mg/kg IP once (1 h post-infection); n = 5. As to the method: All animal studies were performed at the State Research Center for Applied Microbiology & Biotechnology (SRCAMB) in Obolensk (Russia), approved by the Institutional Bioethics Committee of the SRCAMB (Animal Research Protocol #VP-2022/1) and performed according to the Russian Federal rules and Directive 2010/63/EU of the European Parliament and of the Council. Experiments were performed with female eight- to ten-week-old BALB/c mice (“Andreevka” laboratory animal nursery FMBA, Russia). The animals were housed in groups of 5 in polycarbonate cages, and the following housing conditions were used: 12/12 h dark/light cycle, ambient temperature of 20 ÷ 22 °C, 50% humidity. Food and water were provided ad libitum. In vivo efficacy of rumicidins was tested in the mouse septicemia model induced by E. coli ATCC 25922. Mice were infected with 0.5 mL of bacterial suspension (1 × 10^6 CFU per animal) in saline supplemented with 2.5% mucin (w/v) via intraperitoneal (IP) injection. A total of 4 groups with 5 animals were used. […] The second group received saline (as a vehicle control) and administered IP once (1 h post-infection). Two other groups received rumicidin-1 or rumicidin-3 each administered IP three times (1, 4, and 8 h post-infection) at a dose of 10 mg/kg or of 5 mg/kg, respectively. Survival was monitored for 7 days. After that survived animals were euthanized by CO2 asphyxiation. […]

Another data set relates to S. aureus ATCC 29213. Type of data set: cell-based, Staphylococcus aureus. As to conditions: ATCC 29213, 24 h. As to the method:
(§1) The reduction of resazurin to resorufin was recorded.

Data set [2] relates to Mycobacterium smegmatis mc(2)155. It counts as cell-based. As to conditions: Mycobacterium mc(2)155, 24 h. How it is done:
as §1

Data set [3] relates to Proteus mirabilis XDR CI 3423. Type of data set: cell-based. The settings on record: XDR CI 3423, 24 h. How it is done:
as §1

A further data set concerns M. luteus B-1314. Type of data set: cell-based, Micrococcus luteus. As to conditions: B-1314, 24 h. As to the method: as §1
A further data set deals with P. aeruginosa ATCC 27853. Type of data set: cell-based, Pseudomonas aeruginosa. As to conditions: ATCC 27853, 24 h. As to the method: as §1
For data set [4], the system named is E. coli 1057 R2 (rpoS^Q3stop, macB^N470D). The settings on record: MHB + 0.9% NaCl. A digest of the protocol: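 Broth microdilution (CLSI-based) used 10^6 CFU/mL mid-log cells in MHB with or without added NaCl, and peptides serially diluted in 0.1% BSA at 37 °C. Resistance induction used daily serial passage from sub-MIC wells, followed by 3 drug-free passages before the final MIC.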

In the next data set the test system is E. cloacae XDR CI 4172. It counts as cell-based, Enterobacter cloacae. The settings on record: XDR CI 4172, 24 h. How it is done:
as §1

The test system of data set [5] is human red blood cells (hRBC). The data set is described as follows: Hemolysis (hemoglobin release assay). Type of data set: cell-based. As to conditions: mean. How it is done: (§2) Hemolytic activity of the peptides was tested against the fresh suspension of human red blood cells (hRBC) using the hemoglobin release assay as described previously. Two experiments were performed with the hRBC from blood samples collected from healthy donors by certified medical personnel upon informed written consent. All procedures were approved by the Ethics Committee of the Institute of Experimental Medicine (protocol 1/20 of 2/27/2020) and comply with the ethical principles of the Declaration of Helsinki. The quantitative data were represented as average means with standard deviations. The colorimetric 3-(4,5-dimethylthiazol-2-yl)-2,5-diphenyltetrazolium bromide (MTT) dye reduction assay was used to determine cytotoxicity of the peptides against human keratinocyte cell line (HaCaT) and transformed human embryonic kidney cells (HEK293T). Both cell lines were purchased from American Type Culture Collection (ATCC). 10^4 cells per well in Dulbecco’s modified Eagle’s medium (DMEM/F12) supplemented with 10% fetal bovine serum (FBS, Invitrogen) were placed into 96-well plates and then cultured in the CO2-incubator (5% CO2, 37 °C). After the media were removed, the peptides were dissolved in 100 µL of the same medium and added to cell cultures at different final concentrations. 20 h later, 20 μL of MTT (5 mg/mL, Sigma) was added to each well, and the plates were incubated for 4 h at 37 °C. Then, the media were discarded and 100 µL DMSO-isopropanol mixture at a ratio of 1:1 (v/v) was added to each well to dissolve the crystallized formazan. The absorbance at 570 nm was measured by a microplate reader AF2200 (Eppendorf). An optical density in the wells containing cells cultured without the peptides was assumed to represent 100% cell viability. Two independent experiments were performed for each peptide.

The subject of data set [6] is E. coli ATCC 25922. It counts as cell-based, Escherichia coli. The settings on record: ATCC 25922, 24 h. How it is done: as §1
The next data set deals with HaCaT (keratinocytes). Nature of the data set: MTT cytotoxicity. Type of data set: cell-based, human. How it is done: as §2
The test system of data set [7] is HEK293T (transformed embryonic kidney cells). The data set is described as follows: MTT cytotoxicity. Type of data set: cell-based, human. As to conditions: mean. How it is done:
as §2

Take `O=C(O)c1cn(C2CC2)c2cc(N3CCNCC3)c(F)cc2c1=O` [Ciprofloxacin]: the survival result in the data set on E. coli ATCC 25922 [1] is “survival of all mice”.
In the case of RRRPRPPYLPRPRPPPFFPPRL [PR-39[1-22]], the “MIC S. aureus ATCC 29213” value against S. aureus ATCC 29213 was > 32 µM. Also, in data set [2], the “MICs depending on the test medium” value was in the range of 8 to 16 µM and the “Minimum inhibitory concentration (MIC)” value worked out at 8 µM. The “MIC Proteus mirabilis XDR CI 3423” value in data set [3] is > 32 µM. Moreover, the “MIC M. luteus B-1314” value with M. luteus B-1314 was > 32 µM. In addition, the “MIC P. aeruginosa ATCC 27853” value against P. aeruginosa ATCC 27853 is > 32 µM. In addition, the MIC in [4] amounted to 32 µM.
For the compound RRIRPRPPRLPRPRPRPLPFPR [Bac7[1-22]], in the data set with E. cloacae XDR CI 4172, the “MIC E. cloacae XDR CI 4172” value worked out at 1 µM. The “MIC S. aureus ATCC 29213” value against S. aureus ATCC 29213 was > 32 µM. In addition, the Hemolysis in data set [5] (0.25 µM) is listed as 0.017%; in data set [5] (0.5 µM), 0.093%; in [5] (1 µM), 0.134%; in data set [5] (2 µM), 0.206%; in data set [5] (4 µM) it was 0.371%; in [5] (8 µM), 0.43%. Moreover, the Hemolysis in data set [5] (16 µM) is listed as 0.525%; in data set [5] (32 µM) it was 0.835%; in data set [5] (64 µM), 1.043%. Further, the “MIC E. coli ATCC 25922” value against E. coli ATCC 25922 [6] turned out to be 1 µM. The HaCaT cell viability turned out to be 99.202% in the data set on HaCaT (keratinocytes) (1 µM); 105.318% in the data set on HaCaT (keratinocytes) (2 µM); 103.256% in the data set on HaCaT (keratinocytes) (4 µM); 103.504% in the data set with HaCaT (keratinocytes) (8 µM); 102.717% with HaCaT (keratinocytes) (16 µM); 102.854% with HaCaT (keratinocytes) (32 µM). Also, the HaCaT cell viability in the data set with HaCaT (keratinocytes) (64 µM) is listed as 101.039%. For the same compound, the HEK293T cell viability in [7] (1 µM) was found to be 111.372%; in data set [7] (2 µM) it was 111.629%; in [7] (4 µM), 112.981%; in [7] (8 µM), 107.36%; in data set [7] (16 µM) it was 102.824%; in data set [7] (32 µM), 100.41%. In data set [7] (64 µM), the HEK293T cell viability is 98.194%. Further, the MIC in data set [4] was determined as 32 µM.
